Tested on: lupus nephritis
Assay: Predictability of week 48 partial remission from early reduction in UPCR (Tables 4-8)
Assay type: in vivo, human
Method: In the study reported in Example 1, the predictability of outcomes based on markers at early time points were determined.
This is important because it is undesirable to subject a patient to unnecessary treatment, even if the treatment is relatively safe.
PR is defined as at least 50% reduction in proteinuria (i.e. UPCR).
Sensitivity is defined as the probability that a subject showing PR at 48 weeks would have shown a favorable result with regard to the marker at the designated early time point. In the tables below, this is the ratio of the number of subjects with favorable marker results (early drop or normalization) to the total subjects with 48 week PR.
Specificity is defined as the probability that a subject not showing PR at 48 weeks would have shown an unfavorable result with regard to the marker at the designated early time point. In the tables below, this is the ratio of the number of subjects with unfavorable marker results (no early drop or no normalization) to the total subjects with no 48 week PR.
Positive predictive value is defined as the probability that a subject showing a favorable result with respect to the marker at an earlier time point would show PR at 48 weeks. In the tables below, this is the ratio of the number of subjects with favorable marker results who have 48 week PR to those with favorable marker results (early reduction or yes column).
Negative predictive value is defined as the probability that a subject showing an unfavorable result with respect to the marker at an earlier time point would not show PR at 48 weeks. In the tables below, this is the ratio of the number of subjects with unfavorable marker results who have no PR at 48 weeks to the total subjects with unfavorable marker results (no early reduction or no column).

[1] = early 30% reduction in UPCR, week 36, 39.5 mg BID
[2] = early 30% reduction in UPCR, week 48, 23.7 mg BID
[3] = early 30% reduction in UPCR, week 48, 39.5 mg BID
[4] = early 35% reduction in UPCR, week 2, 39.5 mg BID
[5] = early 35% reduction in UPCR, week 6, 23.7 mg BID
[6] = early 35% reduction in UPCR, week 8, 23.7 mg BID
[7] = early 35% reduction in UPCR, week 8, 39.5 mg BID
[8] = early 35% reduction in UPCR, week 12, 23.7 mg BID
[9] = early 35% reduction in UPCR, week 12, 39.5 mg BID
[10] = early 35% reduction in UPCR, week 16, 23.7 mg BID
[11] = early 35% reduction in UPCR, week 16, 39.5 mg BID
[12] = early 35% reduction in UPCR, week 20, 23.7 mg BID
[13] = early 35% reduction in UPCR, week 24, 23.7 mg BID
[14] = early 35% reduction in UPCR, week 24, 39.5 mg BID
[15] = early 35% reduction in UPCR, week 26, 23.7 mg BID
[16] = early 35% reduction in UPCR, week 26, 39.5 mg BID
[17] = early 35% reduction in UPCR, week 36, 23.7 mg BID
[18] = early 35% reduction in UPCR, week 36, 39.5 mg BID
[19] = early 35% reduction in UPCR, week 48, 23.7 mg BID

C=C/C=C/C[C@@H](C)[C@@H](O)[C@H]1C(=O)N[C@@H](CC)C(=O)N(C)CC(=O)N(C)[C@@H](CC(C)C)C(=O)N[C@@H](C(C)C)C(=O)N(C)[C@@H](CC(C)C)C(=O)N[C@@H](C)C(=O)N[C@H](C)C(=O)N(C)[C@@H](CC(C)C)C(=O)N(C)[C@@H](CC(C)C)C(=O)N(C)[C@@H](C(C)C)C(=O)N1C [voclosporin]
Week 48 Partial Remission No Early Drop (early 30% reduction in UPCR, week 36, 23.7 mg BID): 1
Early Reduction No [1]: 9
No Week 48 Partial Remission Early Drop [1]: 11
No Week 48 Partial Remission No Early Drop [1]: 7
Week 48 Partial Remission No Early Drop [1]: 2
Early Reduction No [2]: 3
No Week 48 Partial Remission Early Drop [2]: 8
No Week 48 Partial Remission No Early Drop [2]: 3
Early Reduction No [3]: 11
No Week 48 Partial Remission No Early Drop [3]: 11
Early Reduction Yes [4]: 39
No Week 48 Partial Remission Early Drop [4]: 11
Week 48 Partial Remission No Early Drop [4]: 32
No Week 48 Partial Remission Early Drop (early 35% reduction in UPCR, week 4, 23.7 mg BID): 11
No Week 48 Partial Remission No Early Drop (early 35% reduction in UPCR, week 4, 39.5 mg BID): 8
No Week 48 Partial Remission Early Drop [5]: 9
No Week 48 Partial Remission No Early Drop [5]: 9
Week 48 Partial Remission No Early Drop (early 35% reduction in UPCR, week 6, 39.5 mg BID): 16
No Week 48 Partial Remission Early Drop [6]: 9
No Week 48 Partial Remission No Early Drop [6]: 10
Week 48 Partial Remission No Early Drop [6]: 8
No Week 48 Partial Remission No Early Drop [7]: 4
Week 48 Partial Remission No Early Drop [7]: 8
No Week 48 Partial Remission Early Drop [8]: 10
No Week 48 Partial Remission No Early Drop [8]: 9
Week 48 Partial Remission No Early Drop [8]: 7
No Week 48 Partial Remission No Early Drop [9]: 4
Week 48 Partial Remission No Early Drop [9]: 10
Early Reduction No [10]: 11
No Week 48 Partial Remission Early Drop [10]: 11
No Week 48 Partial Remission No Early Drop [10]: 7
Week 48 Partial Remission No Early Drop [10]: 4
No Week 48 Partial Remission No Early Drop [11]: 7
Week 48 Partial Remission No Early Drop [11]: 8
Early Reduction No [12]: 11
No Week 48 Partial Remission Early Drop [12]: 8
No Week 48 Partial Remission No Early Drop [12]: 8
Week 48 Partial Remission No Early Drop [12]: 3
Early Reduction No (early 35% reduction in UPCR, week 20, 39.5 mg BID): 11
Early Reduction No [13]: 7
No Week 48 Partial Remission Early Drop [13]: 8
Week 48 Partial Remission No Early Drop [13]: 1
No Week 48 Partial Remission No Early Drop [14]: 7
Week 48 Partial Remission No Early Drop [14]: 9
Early Reduction No [15]: 8
No Week 48 Partial Remission Early Drop [15]: 7
Week 48 Partial Remission No Early Drop [15]: 3
Early Reduction No [16]: 11
No Week 48 Partial Remission Early Drop [16]: 11
No Week 48 Partial Remission Early Drop [17]: 9
No Week 48 Partial Remission No Early Drop [17]: 4
Week 48 Partial Remission No Early Drop [17]: 1
Early Reduction No [18]: 9
No Week 48 Partial Remission Early Drop [18]: 11
No Week 48 Partial Remission No Early Drop [18]: 7
Week 48 Partial Remission No Early Drop [18]: 2
Early Reduction No [19]: 4
No Week 48 Partial Remission Early Drop [19]: 7
No Week 48 Partial Remission No Early Drop [19]: 4
No Week 48 Partial Remission Early Drop (early 35% reduction in UPCR, week 48, 39.5 mg BID): 4

Reference: US11622991B2, “Protocol for treatment of lupus nephritis” (Aurinia Pharmaceuticals Inc., priority 2017, dated 2023)
